Columns and labels:
Experiment in all cases: relative viability (nuclei count vs DMSO), 5 days (fraction); higher = more cells survive
[1] = compound: CN(c1ncccc1CNc1nc(Nc2ccc3c(c2)CC(=O)N3)ncc1C(F)(F)F)S(C)(=O)=O + Cc1nc(Nc2ncc(C(=O)Nc3c(C)cccc3Cl)s2)cc(N2CCN(CCO)CC2)n1 [Dasatinib] (partner 0.075 µM)
In short: (§1)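 Lung cancer cell lines in 1536-well plates were dosed by pin tool the day after seeding, either with one drug alone or with a fixed anchor-drug dose plus five library-drug doses (not always all listed) in √10 steps. After 5 days, cells were fixed and their nuclei stained in one step (final 0.05% Triton X-100, 1% formaldehyde, 1 ug/ml Hoechst), then counted on 4× images. Relative viability is the nuclei count in treated wells divided by that in vehicle wells. Values are medians of duplicate plates.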

[2] = compound: CN(c1ncccc1CNc1nc(Nc2ccc3c(c2)CC(=O)N3)ncc1C(F)(F)F)S(C)(=O)=O + CC1(C)CCC(c2ccc(Cl)cc2)=C(CN2CCN(c3ccc(C(=O)NS(=O)(=O)c4ccc(N[C@H](CCN5CCOCC5)CSc5ccccc5)c(S(=O)(=O)C(F)(F)F)c4)cc3)CC2)C1 [Navitoclax] (partner 0.5 µM)
In short: as §1

[3] = compound: CN(c1ncccc1CNc1nc(Nc2ccc3c(c2)CC(=O)N3)ncc1C(F)(F)F)S(C)(=O)=O + CCNC(=O)c1noc(-c2cc(C(C)C)c(O)cc2O)c1-c1ccc(CN2CCOCC2)cc1 [Luminespib] (partner 0.01 µM)
In short: as §1

[4] = compound: CN(c1ncccc1CNc1nc(Nc2ccc3c(c2)CC(=O)N3)ncc1C(F)(F)F)S(C)(=O)=O + CC(C)C[C@H](NC(=O)[C@H](Cc1ccccc1)NC(=O)c1cnccn1)B(O)O [Bortezomib] (partner 0.002 µM)
In short: as §1

Cell Line | relative viability ([1]; first compound 0.01 µM) | relative viability ([1]; first compound 0.03162 µM) | relative viability ([1]; first compound 0.1 µM) | relative viability ([1]; first compound 0.3162 µM) | relative viability ([1]; first compound 1 µM) | relative viability ([2]; first compound 0.01 µM) | relative viability ([2]; first compound 0.03162 µM) | relative viability ([2]; first compound 0.1 µM) | relative viability ([2]; first compound 0.3162 µM) | relative viability ([2]; first compound 1 µM) | relative viability ([3]; first compound 0.01 µM) | relative viability ([3]; first compound 0.03162 µM) | relative viability ([3]; first compound 0.1 µM) | relative viability ([3]; first compound 0.3162 µM) | relative viability ([3]; first compound 1 µM) | relative viability ([4]; first compound 0.01 µM) | relative viability ([4]; first compound 0.03162 µM) | relative viability ([4]; first compound 0.1 µM) | relative viability ([4]; first compound 0.3162 µM) | relative viability ([4]; first compound 1 µM)
LU99A | 0.63 | 0.529 | 0.378 | 0.254 | 0.267 | 0.737 | 0.955 | 0.824 | 0.91 | 0.788 | 0.316 | 0.264 | 0.323 | 0.325 | 0.246 | 1.15 | 1.26 | 1.09 | 1.43 | 1.22
LXF-289 | 0.187 | 0.181 | 0.129 | 0.12 | 0.121 | 0.988 | 1.04 | 0.962 | 0.929 | 0.911 | 0.679 | 0.728 | 0.645 | 0.656 | 0.622 | 1.05 | 1.01 | 0.991 | 0.989 | 0.978
NCI-H23 | 0.78 | 0.697 | 0.882 | 0.835 | 0.719 | 0.867 | 1.04 | 1.08 | 0.969 | 0.837 | 0.182 | 0.204 | 0.207 | 0.228 | 0.207 | 1.22 | 1.38 | 1.09 | 1.08 | 1.03
NCI-H322M | 0.205 | 0.178 | 0.223 | 0.199 | 0.219 | 1.3 | 1.34 |  | 1.51 | 1.26 | 0.798 | 1 | 0.966 | 1.03 | 0.896 | 1.26 | 1.41 |  | 1.38 | 1.44
NCI-H441 | 0.631 | 0.497 | 0.378 | 0.35 | 0.295 | 0.476 | 0.687 | 0.479 | 0.706 | 0.374 | 0.435 | 0.322 | 0.369 | 0.331 | 0.287 | 0.68 | 0.859 | 0.36 | 0.542 | 0.377
NCI-H460 | 0.62 | 0.505 | 0.462 | 0.456 | 0.436 | 1.18 | 1.46 | 1.13 | 1.19 | 1.11 | 0.0312 | 0.0306 | 0.0284 | 0.0265 | 0.0325 | 1.18 | 1.39 | 1.13 | 1.07 | 1.13
NCI-H520 | 0.21 | 0.221 | 0.151 | 0.152 | 0.155 | 1.05 | 1.12 | 1.2 | 1.19 | 1.17 | 0.209 | 0.242 | 0.205 | 0.2 | 0.183 | 0.695 | 0.513 | 0.489 | 1.13 | 0.635
NCI-H596 | 0.558 | 0.623 | 0.54 | 0.608 | 0.5 | 0.9 | 0.912 | 0.965 | 0.86 | 0.675 | 0.943 | 1.02 | 0.951 | 1.06 | 0.968 | 0.793 | 0.973 | 0.93 | 1.1 | 1.28
NCI-H647 | 0.146 | 0.193 | 0.127 | 0.151 | 0.125 | 1.16 | 1.21 | 1.16 | 1.04 | 1.07 | 0.127 | 0.163 | 0.122 | 0.103 | 0.119 | 0.934 | 1.52 | 1.04 | 0.931 | 0.886
NCI-H727 | 0.363 | 0.287 | 0.271 | 0.272 | 0.264 | 0.429 | 0.438 | 0.435 | 0.378 | 0.322 | 0.407 | 0.232 | 0.289 | 0.25 | 0.367 | 0.897 | 1 | 0.73 | 0.765 | 0.731
NCI-H838 | 0.27 | 0.279 | 0.217 | 0.305 | 0.205 | 1.17 | 1.35 | 1.27 | 1.02 | 0.851 | 0.409 | 0.255 | 0.242 | 0.31 | 0.263 | 0.767 | 0.923 | 0.88 | 0.942 | 0.598
NCI-H1355 | 0.757 | 0.76 | 0.75 | 0.606 | 0.645 | 0.942 | 1.02 | 0.968 | 0.846 | 0.776 | 0.713 | 0.723 | 0.645 | 0.624 | 0.65 | 1.29 | 1.28 | 1.14 | 1.14 | 1.07
NCI-H1437 | 0.401 | 0.391 | 0.426 | 0.204 | 0.427 | 1.1 | 1.09 | 1.16 | 0.986 | 0.968 | 1.14 | 1.16 | 1.12 | 0.993 | 0.687 | 0.612 | 0.462 | 0.527 | 0.514 | 0.405
NCI-H1650 | 0.303 | 0.367 | 0.339 | 0.303 | 0.327 | 1.26 | 1.39 | 1.39 |  | 0.76 | 0.203 | 0.207 | 0.194 | 0.193 | 0.198 | 0.229 | 0.196 | 0.232 |  | 0.192
NCI-H1651 | 0.47 | 0.374 | 0.38 | 0.316 | 0.282 | 1.07 | 1 | 1.21 | 0.867 | 0.976 | 1.03 | 0.957 | 0.708 | 0.688 | 0.667 | 0.936 | 1.04 | 0.939 | 0.885 | 0.9
NCI-H1666 | 0.804 | 0.778 | 0.961 | 0.935 | 0.603 | 1.1 | 0.986 | 0.906 | 0.795 | 0.57 | 0.936 | 0.939 | 0.923 | 0.786 | 0.612 | 0.887 | 0.678 | 0.668 | 0.708 | 0.589
